Reference: PubChem BioAssay AID588681 (The Scripps Research Institute Molecular Screening Center, 2011)
pEC50: −log10 of the molar value. Calls of active or inactive are those of the source.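 How the source made its calls: active means half-maximal IDE activation concentration EC50 of 10 µM or lower; inactive means EC50 above 10 µM.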

Target: Insulin-degrading enzyme (Homo sapiens) (UniProt P14735)
Assay: recombinant IDE activation, cell-free – biochemical, fluorescence polarization, counter-screen for IDE activator project, dose response (AID 588681)
Conditions: FAbetaB cleavage

Sequence of Insulin-degrading enzyme (Homo sapiens) (P14735 whole entry, looked up): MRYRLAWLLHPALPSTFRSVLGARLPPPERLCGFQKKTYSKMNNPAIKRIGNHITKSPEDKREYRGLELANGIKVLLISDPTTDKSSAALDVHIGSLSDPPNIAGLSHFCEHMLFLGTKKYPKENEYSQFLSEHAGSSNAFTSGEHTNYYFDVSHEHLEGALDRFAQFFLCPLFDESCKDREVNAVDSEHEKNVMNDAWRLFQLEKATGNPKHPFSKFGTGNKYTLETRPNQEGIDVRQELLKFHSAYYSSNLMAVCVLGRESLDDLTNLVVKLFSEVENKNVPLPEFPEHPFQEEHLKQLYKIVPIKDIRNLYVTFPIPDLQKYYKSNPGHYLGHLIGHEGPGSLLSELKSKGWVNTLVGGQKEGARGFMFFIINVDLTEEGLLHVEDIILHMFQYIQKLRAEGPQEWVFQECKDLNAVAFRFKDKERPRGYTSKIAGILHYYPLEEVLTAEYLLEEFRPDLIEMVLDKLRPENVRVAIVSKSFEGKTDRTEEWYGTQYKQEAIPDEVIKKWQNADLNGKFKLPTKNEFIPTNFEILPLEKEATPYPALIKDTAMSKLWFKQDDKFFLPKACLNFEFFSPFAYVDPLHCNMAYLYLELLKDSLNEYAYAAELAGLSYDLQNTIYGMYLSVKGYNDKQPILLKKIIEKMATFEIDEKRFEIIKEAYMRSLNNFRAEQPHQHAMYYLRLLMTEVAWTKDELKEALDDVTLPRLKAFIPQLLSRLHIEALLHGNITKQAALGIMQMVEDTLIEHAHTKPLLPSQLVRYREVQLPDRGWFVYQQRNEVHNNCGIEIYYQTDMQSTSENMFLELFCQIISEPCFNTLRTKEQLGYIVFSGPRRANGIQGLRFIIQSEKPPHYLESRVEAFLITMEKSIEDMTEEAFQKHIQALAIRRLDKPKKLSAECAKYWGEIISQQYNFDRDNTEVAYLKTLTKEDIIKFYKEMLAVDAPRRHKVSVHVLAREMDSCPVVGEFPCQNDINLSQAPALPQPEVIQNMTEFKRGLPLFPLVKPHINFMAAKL

A pEC50 of 5.63 was found for `C#CCOCCOCCOCCNc1nc(N2CCN(C(=O)CCCCCCCCCCNC(=O)[C@H]([C@@H](C)CC)n3cc(CCCCCN)nn3)CC2)nc(N2CCN(C(=O)CCCCCCCCCCNC(=O)[C@H]([C@@H](C)CC)n3cc(CCCCN=C(N)N)nn3)CC2)n1` in this work.

A pEC50 of 5.15 was found for `C#CCOCCOCCOCCNc1nc(N2CCN(C(=O)CCCCCCCCCCNC(=O)[C@H](CCCCN)n3cc(CCO)nn3)CC2)nc(N2CCN(C(=O)CCCCCCCCCCNC(=O)[C@H](CCCN=C(N)N)n3cc(C[C@@H](C)CC)nn3)CC2)n1` in this work.

In the case of `C#CCOCCOCCOCCNc1nc(N2CCN(C(=O)CCCCCCCCCCNC(=O)Cn3cc(CCCCCN)nn3)CC2)nc(N2CCN(C(=O)CCCCCCCCCCNC(=O)Cn3cc(C[C@@H](C)O)nn3)CC2)n1`, the EC50 was > 54.7 µM (inactive).

With `C#CCOCCOCCOCCNc1nc(N2CCN(C(=O)CCCCCCCCCCNC(=O)Cn3cc(CCCCCN)nn3)CC2)nc(N2CCN(C(=O)CCCCCCCCCCNC(=O)[C@H](CO)n3cc(CCCSC)nn3)CC2)n1` the EC50 was “inactive”.

A pEC50 of 5.18 was found for `C#CCOCCOCCOCCNc1nc(N2CCN(C(=O)CCCCCCCCCCNC(=O)Cn3cc(C[C@@H](C)O)nn3)CC2)nc(N2CCN(C(=O)CCCCCCCCCCNC(=O)[C@H](CCCN=C(N)N)n3cc(C[C@@H](C)CC)nn3)CC2)n1` in this work.

In the case of `C#CCOCCOCCOCCNc1nc(N2CCN(C(=O)CCCCCCCCCCNC(=O)[C@@H](CCSC)n3cc(CCO)nn3)CC2)nc(N2CCN(C(=O)CCCCCCCCCCNC(=O)[C@H](CO)n3cc(CCCCCN)nn3)CC2)n1`, the EC50 was “inactive”.

With `C#CCOCCOCCOCCNc1nc(N2CCN(C(=O)CCCCCCCCCCNC(=O)[C@H](CO)n3cc(CCCSC)nn3)CC2)nc(N2CCN(C(=O)CCCCCCCCCCNC(=O)[C@H](CCCCN)n3cc(CCO)nn3)CC2)n1` the EC50 was > 54.7 µM (inactive).

A pEC50 of 5.07 was found for `C#CCOCCOCCOCCNc1nc(N2CCN(C(=O)CCCCCCCCCCNC(=O)Cn3cc(CCCCCN)nn3)CC2)nc(N2CCN(C(=O)CCCCCCCCCCNC(=O)[C@H]([C@@H](C)CC)n3cc(CCCCCN)nn3)CC2)n1` in this work.
